Source: the supplement of paper PMC3974653
Where a name gives a salt, the structure may show the parent alone.

Tested on: MTT (mouse pheochromocytoma)
Assay: IC50 of cell viability (ATP content)
Conditions: (24 or 48 h)
Method in brief: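 MTT mouse pheochromocytoma cells in white 1536-well plates were treated for 24 or 48 hrs with library compounds at 8 final concentrations from 0.5 nM to 46 µM. ATP content was measured with CellTiter-Glo luminescence, using positive-control wells as 100% and DMSO wells as 0%. IC50 came from a four-parameter logistic fit.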

Compound | IC50 of cell viability [µM]
NC(=O)OC[C@H](O)COc1ccc(Cl)cc1 [Chlorphensin carbamate] | > 46
CC(C)(N)Cc1ccc(Cl)cc1 [Chlorphentermine hydrochloride] | > 46
CCCNC(=O)N[S+](=O)([O-])c1ccc(Cl)cc1 [Chlorpropamide] | > 46
CN(C)CC/C=C1\c2ccccc2Sc2ccc(Cl)cc21 [Chlorprothixene] | > 46
CN(C)[C@H]\1[C@@H]2C[C@H]3\C(=C(\O)[C@@]2(O)C(=O)\C(=C1O)C(N)=O)C(=O)C4=C(O)C=CC(=C4[C@]3(C)O)Cl [Chlortetracycline hydrochloride] | > 46
COC(=O)c1c(Cl)c(Cl)c(C(=O)OC)c(Cl)c1Cl [Chlorthal-dimethyl] | > 46
N[S+](=O)([O-])c1cc([C@]2(O)NC(=O)c3ccccc32)ccc1Cl [Chlorthalidone] | > 46
C[C@H](CCC(=O)O)[C@H]1CC[C@@H]2[C@H]3[C@@H](C[C@@H](O)[C@]21C)[C@]1(C)CC[C@H](O)C[C@@H]1C[C@@H]3O [Cholic Acid] | > 46
CC(=O)[O-].C[N+](C)(C)CCO [Cholin acetate] | > 46
C[N+](C)(C)CCO [Choline bromide] | > 46
CCOC(=O)COc1ccc2c(C)c(CC[NH+](CC)CC)c(=O)oc2c1 [Chromonar hydrochloride] | > 46
Cc1cc(O)c2c(O)c3c(O)cccc3cc2c1 [Chrysarobin] | > 46
N#CCC(=O)NN [Ciacetacida] | > 46
c1ccc(C2(c3ccccc3)CC2C2=NCCN2)cc1 (centres undefined) [Cibenzoline succinate] | > 46
COc1cc(/C=C2\CCC/C(=C\c3ccc(O)c(OC)c3)C2=O)ccc1O [Ciclovalona] | > 46
CC1(COc2ccc(CC3SC(=O)NC3=O)cc2)CCCCC1 (centres undefined) [Ciglitizone] | > 46
CCOC(=O)[C@H](CCc1ccccc1)N[C@H]1CCCN2CCC[C@@H](C(=O)O)N2C1=O [Cilazapril] | > 46

Compound | IC50 of cell viability [µM]
COCCOC(=O)C1=C(C)NC(C)=C(C(=O)OC/C=C/c2ccccc2)C1c1cccc([N+](=O)[O-])c1 (centres undefined) [Cilnidipine] | > 46
CN(C1CCCCC1)C(=O)CCCOC2=CC\3=C(NC(=O)\C=C3)C=C2 [Cilostamide] | > 46
O=C(/C=C/c1cccc(F)c1)NC1CC1 [Cinflumide] | > 46
OC/C=C/c1ccccc1 [Cinnamyl alcohol] | > 46
C(=C/c1ccccc1)/CN1CCN(C(c2ccccc2)c2ccccc2)CC1 [Cinnarizine] | > 46
CCN1\N=C(\C(O)=O)C(=O)C2=C1C=C3OCOC3=C2 [Cinoxacin] | > 46
CC(C)(Oc1ccc(C2CC2(Cl)Cl)cc1)C(=O)O (centres undefined) [Ciprofibrate] | > 46
C[N@@+]12CCC(CC1)[C@@H](C2)OC(=O)C(O)(C3=CC=CC=C3)C4=CC=CC=C4 [Clidinium bromide] | > 46
O=P([O-])(O)C(Cl)(Cl)P(=O)([O-])O.[Na+].[Na+] [Clodronic acid] | > 46
O=C(CCl)c1ccc(Oc2ccc(C(=O)CCl)cc2)cc1 [Clofenoxyde] | > 46
CCOC(=O)NC(C)(C)Cc1ccc(Cl)cc1 [Cloforex] | > 46
COc1ccc2c(C(=O)c3ccc(Cl)cc3)c(C)n(CC(=O)O)c2c1 [Clometacine] | > 46
Clc1ccc([C@@H](OCCN2CCCCC2)c2ccccc2)cc1 [Cloperastine hydrochloride] | > 46
Oc1ccc(Cl)cc1Cc1ccccc1 [Clorophene] | > 46
C[C@]12CCC3C(CCC4=C(Cl)C(=O)CC[C@@]43C)C1CCC2O (some centres undefined) [Clostebol] | > 46
COC1=C2OC3C(O)\C=C/C4[C@H]5CC(=C2[C@@]34CCN5C)C=C1 (some centres undefined) [Codeine] | > 46
N#CN [Cyanamide] | > 46

Continued, values first:

IC50 of cell viability [µM] | Compound
> 46 | OC(=O)\C1=C\N(C2CC2)C3=CC(=C(F)C=C3C1=O)N4CCNCC4 [Ciprofloxacin hydrochloride]
> 46 | COc1cc(N)c(Cl)cc1C(=O)N[C@@H]1CCN(CCCOc2ccc(F)cc2)C[C@H]1OC [Cisapride]
> 46 | O=C(O)CC(O)(CC(=O)O)C(=O)O [Citric acid]
> 46 | CN1C(=O)CN2CCc3ccccc3C2c2cc(Cl)ccc21 (centres undefined) [Clazolam]
> 46 | COc1cc(N)c(Cl)cc1C(=O)NC1CCN(Cc2ccccc2)CC1 [Clebopride maleate]
> 46 | CN1CCC[C@@H]1CCO[C@](C)(c1ccccc1)c1ccc(Cl)cc1 [Clemastine fumarate]
> 46 | Clc1ccc(Cn2c(CN3CCCC3)nc3ccccc32)cc1 [Clemizole hydrochloride]
> 46 | CC(C)(C)C(=O)C(Oc1ccc(Cl)cc1)n1ccnc1 (centres undefined) [Climbazole]
> 46 | CCC[C@@H]1CC(C(=O)NC(C2O[C@H](SC)C(OP(=O)(O)O)[C@H](O)[C@H]2O)[C@H](C)Cl)N(C)C1 (some centres undefined) [Clindamycin 2-phosphate]
> 46 | CCC[C@H]1C[C@H](C(=O)N[C@@H]([C@@H]2O[C@@H](SC)[C@@H](O)[C@@H](O)[C@H]2O)[C@H](C)Cl)N(C)C1 [Clindamycin hydrochloride]
> 46 | CCCCCCCCCCCCCCCC(=O)O[C@@H]1[C@@H](O)[C@@H](O)C(C(NC(=O)[C@H]2C[C@@H](CCC)CN2C)C(C)Cl)O[C@@H]1SC (some centres undefined) [Clindamycin palmitate]
> 46 | C[C@@H]1C[C@@H]2[C@H]3C[C@@H](F)\C4=C\C(=O)\C=C/[C@]4(C)[C@@]3(Cl)[C@@H](O)C[C@@]2(C)[C@@H]1C(=O)COC(=O)C(C)(C)C [Clocortolone pivalate]
> 46 | CC(C)/N=c1\cc2n(-c3ccc(Cl)cc3)c3ccccc3nc-2cc1Nc1ccc(Cl)cc1 [Clofazimine]
> 46 | N[S+](=O)([O-])c1ccc(Cl)c([S+](N)(=O)[O-])c1 [Clofenamide]
> 46 | CCOC(=O)C(C)(C)Oc1ccc(Cl)cc1 [Clofibrate]
> 46 | CC(C)(Oc1ccc(Cl)cc1)C(=O)O [Clofibric_acid]
> 46 | O=C(Nc1ccc(Cl)cc1)Nc1ccc(Cl)c(C(F)(F)F)c1 [Cloflucarban]
> 46 | C[C@@H]1CCC[C@H](C)N1NC(=O)c1ccc(Cl)c([S+](N)(=O)[O-])c1 [Clopamide]
> 46 | Cc1cc(CC(=O)O)c(C)n1-c1ccc(Cl)cc1 [Clopirac]
> 46 | C#CCN(C)CCCOc1ccc(Cl)cc1Cl.Cl [Clorgyline hydrochloride]

IC50 of cell viability [µM] | Compound
> 46 | O=C1c2ccccc2C(=O)C1c1ccc(Cl)cc1 [Clorindione]
> 46 | Nc1cc(C(Cl)=C(Cl)Cl)c([S+](N)(=O)[O-])cc1[S+](N)(=O)[O-] [Clorsulon]
> 46 | CN1CCN(C2=Nc3ccccc3Sc3ccc(Cl)cc32)CC1 [Clothiapine]
> 46 | Clc1ccccc1C(c1ccccc1)(c1ccccc1)n1ccnc1 [Clotrimazole]
> 46 | [Na+].CC1=C(C(=O)N[C@H]2[C@H]3SC(C)(C)[C@H]([N@]3C2=O)C([O-])=O)C(=NO1)C4=C(Cl)C=CC=C4 [Cloxacillin sodium salt]
> 46 | O.O.O.O.O.O.O.O=S(=O)([O-])[O-].[Co+2] [Cobalt sulfate heptahydrate]
> 46 | COC1=C(OC)C(=O)C(C/C=C(\C)CC/C=C(\C)CC/C=C(\C)CC/C=C(/C)CC/C=C(\C)CC/C=C(\C)CC/C=C(\C)CC/C=C(\C)CC/C=C(\C)CCC=C(C)C)=C(C)C1=O [Coenzyme Q10]
> 46 | CCCCC(CC)COC(=O)CC(C(=O)OCC(CC)CCCC)S(=O)(=O)[O-] (centres undefined) [Colace]
> 46 | CC(C)CCCC(C)C1CC(=O)C2=C3CCC4CC(O)CCC4(C)C3CCC21C (centres undefined) [Colestolone]
> 46 | C[C@]\12CCC(=O)\C=C1CC[C@@H]3[C@@H]2CC[C@@]4(C)[C@H]3CC[C@]4(O)C(=O)CO [Cortexolone]
> 46 | C[C@]12C[C@H](O)[C@H]3[C@@H](CCC/4=C/C(=O)CC[C@]34C)[C@@H]1CC[C@@H]2C(=O)CO [Corticosterone]
> 46 | CC(=O)OCC(=O)[C@@]1(O)CC[C@H]2[C@@H]3CCC/4=C/C(=O)CC[C@]4(C)[C@H]3C(=O)C[C@]12C [Cortisone 21-acetate]
> 46 | O=C\1OC2=C(C=CC=C2)\C=C1 [Coumarin]
> 46 | OC(COC1=CC=CC2=C1C(=O)\C=C(/O2)C(O)=O)COC3=CC=CC4=C3C(=O)\C=C(/O4)C(O)=O [Cromolyn sodium]
> 46 | C/C=C\C(=O)N(CC)c1ccccc1C [Crotamiton]
> 46 | C/C=C/C=N/NC(=O)c1ccncc1 [Crotoniazida]
> 46 | CC1(C)S[C@H]2[C@H](NC(=O)C3(N)CCCCC3)C(=O)[N@]2[C@H]1C(O)=O [Cyclacillin]
> 46 | O=S(=O)(O)NC1CCCCC1 [Cyclamic acid]
> 46 | CN1CCN(C(c2ccccc2)c2ccccc2)CC1 [Cyclizine hydrochloride]
> 46 | CC1(C)\N=C(N)/N=C(/N)N1C2=CC=C(Cl)C=C2 [Cycloguanil HCl]
